In assay [1] the target is recombinant human or murine heat shock protein 70 (hsp70). Type of assay: binding.
In assay [2] the test system is CD8+ T cells. On the set-up: species or system mice. To be noted: mouse, in vivo.
For assay [3], the system named is γ-interferon-secreting CD8+ cells. In words: γ-interferon-secreting CD8+ cells after immunization of mice and in vitro restimulation with […]. Type of assay: in vivo. To be noted: mice immunized day 0, splenocytes day 7, restimulated 5 days; FIG. 1. On the procedure: Non-covalent complexes of recombinant human heat shock protein 70 and hybrid antigens of the invention were evaluated for biological activity in vivo. To evaluate the induction of an antigen-specific immune response, mice were immunized on day 0 with one of the following: (1) 100 μg human hsp70; (2) a noncovalent complex of 100 μg hsp70 and 15 μg […] (SEQ ID NO:357) (OVA peptide); (3) a noncovalent complex of 100 μg hsp70 and 15 μg […] (SEQ ID NO:368) (N-terminal OVA peptide, C-terminal heat shock protein binding domain […] (SEQ ID NO:358), GSG linker in between); and (4) a noncovalent complex of […] and 15 μg […] (SEQ ID NO:367) (N-terminal OVA peptide, C-terminal heat shock protein binding domain […] (SEQ ID NO:359), GSG linker in between).
On day 7, splenocytes were obtained from the immunized animals and were restimulated with peptide ([…]) (SEQ ID NO:357) in vitro for 5 days, after which the percent of γ-interferon-secreting CD8+ cells was determined.

The test system of assay [4] is SIINFEKL-pulsed target cells. Kind of assay: 51Cr-release CTL assay after immunization of mice. Type of assay: in vivo. Particulars: for CTL assay: % killing at 200:1 E/T: SIINFEKL-pulsed target cells. As to the method:
Mice were immunized s.c. at the base of the tail with the complexes listed above—[…] (SEQ ID NO:359) alone was added at a five-fold molar excess of the […] (SEQ ID NO:358) dose. 7 d later, spleens were harvested and stimulated in vitro with […] (SEQ ID NO:357) peptide. Values within bars represent the amount of epitope delivered. 100:1 E:T ratio shown.
In the same experiment, a ^51Cr-release assay as described above was done using […]-pulsed target cells. At an effector to target cell ratio of 200:1, the percent killing results obtained are shown in the far right column of the following table.

The mark [5] stands for this setting: read-out: Epitope alone: Affinity for hsp70.
Where [6] appears, read: read-out: Hybrid antigen comprising epitope: Affinity for hsp70.
Setting [7] is: pH 8, read-out: Kd, peptide (epitope), heat shock protein-binding domain: None.
The mark [8] stands for this setting: read-out: Kd, heat shock protein-binding domain: HWDFAWPW, pH 8, read-out: Kd, heat shock protein-binding domain: […].
Where [9] appears, read: read-out: Kd, heat shock protein-binding domain: FYQLALTW, pH 8, read-out: Kd, heat shock protein-binding domain: […].
[10] abbreviates: read-out: Kd, heat shock protein-binding domain: NLLRLTGW, pH 8, read-out: Kd, heat shock protein-binding domain: […].
Setting [11] is: read-out: Kd, heat shock protein-binding domain: RKLFFNLRW, pH 8, read-out: Kd, heat shock protein-binding domain: […].

pKd: −log10 of the molar value. Several values for one entry are separate records, joined by “and”; a condition that tells them apart may be missing. Identical values can stand only once. Like-named read-outs stand apart in the source and are kept apart here. No end group written: not given here.

Turning to AFHHVAREL [reference compound], the pKd in assay [1] (setting [5]) is 4.08. As for AFHHVARELGSGNLLRLTGW, the pKd in assay [1] (setting [6]) is 5.68. Take AIIRILQQL [reference compound]: the pKd in assay [1] (setting [5]) was 4.03. Take AIIRILQQLGSGNLLRLTGW: in assay [1] (setting [6]), the pKd is 6.22. ALFDIESKV [PSMA P2, reference compound]: the pKd in assay [1] (setting [7]) is 3.84. For the substance “ALFDIESKVgsgHWDFAWPW (ALFDIESKVGSGHWDFAWPW; not fully specified; printed as ALFDIESKVgsgHWDFAWPW) [PSMA P2 + HWDFAWPW]”, the pKd in assay [1] (setting [8]) was 4.66.

On to ALKHRAYEL [reference compound], for which the pKd in assay [1] (setting [5]) is 4.01. In the case of ALKHRAYELGSGNLLRLTGW, the pKd in assay [1] (setting [6]) was 5.96.

For the substance FYQLALTW, in assay [1] (setting [9]), the pKd was 5.23. As for GLYDGMEHL [reference compound], the pKd in assay [1] (setting [5]) is 4.32. Take GLYDGMEHLGSGNLLRLTGW: in assay [1] (setting [6]), the pKd is 5.96.

As for HWDFAWPW, the pKd in assay [1] (setting [8]) is 3.92. On the same count and under the same terms, for “HWDFAWPWgsgSIINFEKL (HWDFAWPWGSGSIINFEKL; not fully specified; printed as HWDFAWPWgsgSIINFEKL)” the value was 5.37. The same measure, in the same setting: for “HWDFAWPWgsgYMDGTMSQV (HWDFAWPWGSGYMDGTMSQV; not fully specified; printed as HWDFAWPWgsgYMDGTMSQV)” the value was 4.54. For the substance “Hsp70: recombinant human heat shock protein 70”, in assay [2], the “Number of Spots, Con A Positive control” value is 965; the “Number of Spots, Con A positive control” value is 834; the “Number of Spots, Medium control” value is 1.50 and 1.00; the “Number of Spots, SIINFEKL” value is reported as 0.33. For the same substance, in assay [2], the “Number of spots, Con A positive control” value is recorded as 552 spots per 300,000 CD8 T cells; the “Number of spots, Medium control” value is reported as 0.00 spots per 300,000 CD8 T cells; the “Number of spots, SIINFEKL” value was 0.67 spots per 300,000 CD8 T cells; the “Number of spots, Unpulsed control” value is given as 0.50 spots per 300,000 CD8 T cells. The “Number of spots, VSV control” value in assay [2] is 1.00 spots per 300,000 CD8 T cells. For the same substance, in assay [2] (sc), the “Number of Spots, SIINFEKL” value is recorded as 0.00. Moreover, the “immune response: percent of γ-interferon-secreting CD8+ cells” value in assay [3] is “low level of response”. In addition, the “CTL assay: % killing at 200:1 E/T” value in assay [4] (Example 14) amounted to 0%. In addition, in assay [4] (Example 16), the “CTL assay: % killing at 200:1 E/T” value was 8.45%.

On to ILKEPVHGV [reference compound], for which the pKd in assay [1] (setting [5]) was 4.08. ILKEPVHGVGSGNLLRLTGW: the pKd in assay [1] (setting [6]) is 5.92. “IMDQVPFSV [Gp100 (“IMD”), reference compound]”: the pKd in assay [1] (setting [7]) and in assay [1] (setting [5]) was 2.59 each time. For “IMDQVPFSVgsgHWDFAWPW (IMDQVPFSVGSGHWDFAWPW; not fully specified; printed as IMDQVPFSVgsgHWDFAWPW)”, the pKd in assay [1] (setting [8]) is 3.81. In the case of “IMDQVPFSVgsgNLLRLTGW (IMDQVPFSVGSGNLLRLTGW; not fully specified; printed as IMDQVPFSVgsgNLLRLTGW)”, the pKd in assay [1] (setting [6]) was 6.05; in assay [1] (setting [10]), 5.51. As for KASEKIFYV [reference compound], the pKd in assay [1] (setting [5]) is 4.24. With KASEKIFYVGSGNLLRLTGW, the pKd in assay [1] (setting [6]) was 5.85. As for NLLRLTGW, in assay [4] (binding domain peptide alone added at five-fold molar excess), the “effect on induction of an immune response by HSP70: SIINFEKLGSGHWDFAWPW mixture” value is recorded as “prevent induction of an immune response”. The pKd in assay [1] (setting [10]) is 5.73. For NLLRLTGWGSGRGYVYQGL, the pKd in assay [1] (setting [6]) is 5.85.

As for NLLRLTGWGSGSHNFEKL, in assay [1] (setting [6]), the pKd is 5.80. On to PSMA P2 + NLLRLTGW, for which, in assay [1] (setting [10]), the pKd is 5.89. As to RKLFFNLRW, the pKd in assay [1] (setting [11]) was 4.82. On to SIINFEKL [OVA, reference compound], for which the pKd in assay [1] (setting [7]) is 3.55. For the substance “SIINFEKLgsgFYQLALTW (SIINFEKLGSGFYQLALTW; not fully specified; printed as SIINFEKLgsgFYQLALTW) [OVA + FYQLALTW]”, the pKd in assay [1] (setting [9]) is 5.84.

As for “SIINFEKLgsgHWDFAWPW (SIINFEKLGSGHWDFAWPW; not fully specified; printed as SIINFEKLgsgHWDFAWPW) [OVA + HWDFAWPW]”, the pKd in assay [1] (setting [8]) was 4.40. As to “SIINFEKLgsgNLLRLTGW (SIINFEKLGSGNLLRLTGW; not fully specified; printed as SIINFEKLgsgNLLRLTGW) [OVA + NLLRLTGW]”, the “increase in affinity for HSP70 (lower dissociation constant) over SIINFEKLGSGHWDFAWPW” value in assay [1] is given as 15 fold. The pKd in assay [1] (setting [10]) is 5.92. Consider “SIINFEKLgsgRKLFFNLRW (SIINFEKLGSGRKLFFNLRW; not fully specified; printed as SIINFEKLgsgRKLFFNLRW) [OVA + RKLFFNLRW]”, for which the pKd in assay [1] (setting [11]) is 5.15.

Regarding SLFNTVATL [reference compound], the pKd in assay [1] (setting [5]) was 4.46. Take SLFNTVATLGSGNLLRLTGW: the pKd in assay [1] (setting [6]) is 5.72.

In the case of SLLMWITQVGSGNLLRLTGW, the pKd in assay [1] (setting [6]) was 5.66. Still for that read-out and setting: for SLYNTVATLGSGNLLRLTGW the value was 5.74. Take SVYDFFVWL [reference compound]: the pKd in assay [1] (setting [5]) was 4.09. Consider SVYDFFVWLGSGNLLRLTGW, for which the pKd in assay [1] (setting [6]) is 5.54. Regarding “TLGIVCPI [HPV16 E7 (86-93), reference compound]”, the pKd in assay [1] (setting [7]) is 3.73.

In the case of “TLGIVCPIgsgHWDFAWPW (TLGIVCPIGSGHWDFAWPW) [HPV16 E7 (86-93) + HWDFAWPW]”, in assay [1] (setting [8]), the pKd was 5.04.

Turning to “TLGIVCPIgsgNLLRLTGW [HPV16 E7 (86-93) + NLLRLTGW]”, in assay [1] (setting [10]), the pKd is 5.28. Regarding VIYQYMDDL [reference compound], the pKd in assay [1] (setting [5]) is 4.04.

On to VIYQYMDDLGSGNLLRLTGW, for which, in assay [1] (setting [6]), the pKd was 5.77.

For the substance VLDVGDAYFSV [reference compound], in assay [1] (setting [5]), the pKd was 3.96. As to VLDVGDAYFSVGSGNLLRLTGW, the pKd in assay [1] (setting [6]) was 5.70.

In the case of YLEPGPVTV [reference compound], in assay [1] (setting [5]), the pKd was 4.15. Turning to YLEPGPVTVGSGNLLRLTGW, in assay [1] (setting [6]), the pKd was 5.70. As for “YMDGTMSQV [Tyrosinase (“YMD”), reference compound]”, the pKd in assay [1] (setting [7]) was 3.69; in assay [1] (setting [5]), 3.68. For the substance “YMDGTMSQVgsgHWDFAWPW (YMDGTMSQVGSGHWDFAWPW)”, the pKd in assay [1] (setting [8]) is 4.62. In the case of YMDGTMSQVgsgNLLRLTGW, the pKd is 5.74 in assay [1] (setting [6]) and 5.58 in assay [1] (setting [10]). Take “YMLDLQPETT [HPV16 E7 (11-20), reference compound]”: the pKd in assay [1] (setting [7]) is 4.04. On to “YMLDLQPETTgsgHWDFAWPW (YMLDLQPETTGSGHWDFAWPW) [HPV16 E7 (11-20) + HWDFAWPW]”, for which the pKd in assay [1] (setting [8]) is 4.57.

(Values after patent US7420037B2, “Heat shock protein-based vaccines and immunotherapies” (Antigenics Inc., priority 2003, dated 2008).)
